What was measured:
PI3Kδ = PI3Kδ (Homo sapiens (Human), UniProt O00329); assay: PI3Kδ enzyme activity inhibition IC50 evaluation assay; format: biochemical; conditions: luminescence, 25 μM ATP, 50 μM PIP2, 2 hrs room temperature
Procedure: (§1) PI3Kα, PI3Kδ, PI3Kβ and PI3Kγ Enzyme Activity Inhibition IC50 Evaluation Assay
• 1. Buffer preparation: 50 mM HEPES, pH 7.5, 3 mM MgCl2, 1 mM EGTA, 100 mM NaCl, 0.03% CHAPS. • 2. Compound was formulated in 100% DMSO in a concentration gradient, and added to a 384-well plate to a final DMSO concentration of 1%. • 3. PI3Kα, PI3Kδ, PI3Kβ and PI3Kγ enzymes were diluted to an optimum concentration with the following buffer: 50 mM HEPES, pH 7.5, 3 mM MgCl2, 1 mM EGTA, 100 mM NaCl, 0.03% CHAPS, 2 mM DTT, and transferred to a 384-well plate and incubated with the compound for a certain time. • 4. […] For PI3Kβ and PI3Kγ, it was still necessary to further add 10 μL ADP-Glo Detection Reagent, and then equilibrated at room temperature for 30 minutes. • 5. Read Luminescense with FlexStation, and calculate the inhibition rate as the average of two tests.

PI3Kα = PI3Kα (Homo sapiens (Human), UniProt P42336); assay: PI3Kα enzyme activity inhibition IC50 evaluation assay; format: biochemical; conditions: ratio PI3Kα vs PI3Kδ
Sequence of PI3Kα (P42336 whole entry): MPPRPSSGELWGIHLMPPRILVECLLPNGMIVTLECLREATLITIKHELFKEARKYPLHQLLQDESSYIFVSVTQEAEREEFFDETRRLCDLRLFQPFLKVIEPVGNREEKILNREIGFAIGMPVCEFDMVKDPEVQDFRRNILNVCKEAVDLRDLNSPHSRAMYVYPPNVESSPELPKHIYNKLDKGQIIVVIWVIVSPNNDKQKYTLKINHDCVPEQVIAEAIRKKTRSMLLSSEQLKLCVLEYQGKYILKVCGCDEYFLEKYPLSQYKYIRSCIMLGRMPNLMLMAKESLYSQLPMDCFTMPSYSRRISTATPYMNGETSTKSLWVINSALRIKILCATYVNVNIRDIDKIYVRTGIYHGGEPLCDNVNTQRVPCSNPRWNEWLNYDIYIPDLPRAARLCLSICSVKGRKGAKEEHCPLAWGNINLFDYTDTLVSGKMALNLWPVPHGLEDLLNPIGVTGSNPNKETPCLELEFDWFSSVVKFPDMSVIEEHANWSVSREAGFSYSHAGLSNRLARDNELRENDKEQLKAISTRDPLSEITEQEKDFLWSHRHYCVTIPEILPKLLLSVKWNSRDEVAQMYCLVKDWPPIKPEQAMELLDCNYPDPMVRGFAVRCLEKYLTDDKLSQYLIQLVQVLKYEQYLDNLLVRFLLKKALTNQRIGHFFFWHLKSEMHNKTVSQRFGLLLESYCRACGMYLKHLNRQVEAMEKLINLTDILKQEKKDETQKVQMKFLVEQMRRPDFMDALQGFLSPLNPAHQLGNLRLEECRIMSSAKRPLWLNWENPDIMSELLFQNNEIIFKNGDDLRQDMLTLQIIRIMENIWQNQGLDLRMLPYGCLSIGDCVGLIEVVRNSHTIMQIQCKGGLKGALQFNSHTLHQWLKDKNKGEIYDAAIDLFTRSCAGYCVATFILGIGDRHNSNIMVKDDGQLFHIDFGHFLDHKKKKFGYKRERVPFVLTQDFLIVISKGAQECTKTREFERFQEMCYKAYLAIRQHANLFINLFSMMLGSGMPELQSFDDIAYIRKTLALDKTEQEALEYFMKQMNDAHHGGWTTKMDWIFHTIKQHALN
Sequence of PI3Kα (P27986 whole entry partner): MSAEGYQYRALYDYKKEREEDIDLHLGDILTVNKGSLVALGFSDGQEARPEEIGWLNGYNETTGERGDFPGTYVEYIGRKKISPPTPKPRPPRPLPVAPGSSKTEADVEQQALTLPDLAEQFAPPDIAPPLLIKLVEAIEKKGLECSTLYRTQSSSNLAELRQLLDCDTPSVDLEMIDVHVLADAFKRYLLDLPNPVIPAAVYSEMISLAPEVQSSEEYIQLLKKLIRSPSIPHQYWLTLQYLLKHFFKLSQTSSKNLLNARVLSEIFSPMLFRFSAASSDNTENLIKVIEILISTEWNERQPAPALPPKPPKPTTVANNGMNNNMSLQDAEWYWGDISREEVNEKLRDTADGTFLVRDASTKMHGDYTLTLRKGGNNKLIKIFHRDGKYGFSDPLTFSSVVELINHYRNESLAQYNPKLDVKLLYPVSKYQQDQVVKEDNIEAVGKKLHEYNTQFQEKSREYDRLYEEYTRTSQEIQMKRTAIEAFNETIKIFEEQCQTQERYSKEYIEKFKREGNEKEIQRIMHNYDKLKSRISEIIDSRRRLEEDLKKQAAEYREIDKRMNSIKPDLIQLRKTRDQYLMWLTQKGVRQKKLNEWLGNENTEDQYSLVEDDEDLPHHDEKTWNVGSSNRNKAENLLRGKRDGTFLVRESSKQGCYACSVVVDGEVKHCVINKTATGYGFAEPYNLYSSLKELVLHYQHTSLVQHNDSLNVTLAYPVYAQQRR
Procedure: as §1
• 1. Buffer preparation: 50 mM HEPES, pH 7.5, 3 mM MgCl2, 1 mM EGTA, 100 mM NaCl, 0.03% CHAPS. • 2. Compound was formulated in 100% DMSO in a concentration gradient, and added to a 384-well plate to a final DMSO concentration of 1%. • 3. PI3Kα, PI3Kδ, PI3Kβ and PI3Kγ enzymes were diluted to an optimum concentration with the following buffer: 50 mM HEPES, pH 7.5, 3 mM MgCl2, 1 mM EGTA, 100 mM NaCl, 0.03% CHAPS, 2 mM DTT, and transferred to a 384-well plate and incubated with the compound for a certain time. • 4. Substrate was diluted to an optimum concentration with the following buffer: 50 mM HEPES, pH 7.5, 3 mM MgCl2, 1 mM EGTA, 100 mM NaCl, 0.03% CHAPS, 2 mM DTT, 50 μM PIP2, 25 μM ATP; then added to a 384-well plate to initiate the reaction, and for PI3Kα, PI3Kβ and PI3Kγ at room temperature reacted for 1 hr, for PI3Kδ at room temperature reacted for 2 hrs. For PI3Kβ and PI3Kγ, it was still necessary to further add 10 μL ADP-Glo Detection Reagent, and then equilibrated at room temperature for 30 minutes. • 5. Read Luminescense with FlexStation, and calculate the inhibition rate as the average of two tests.

Sequence of PI3Kδ (O00329 whole entry): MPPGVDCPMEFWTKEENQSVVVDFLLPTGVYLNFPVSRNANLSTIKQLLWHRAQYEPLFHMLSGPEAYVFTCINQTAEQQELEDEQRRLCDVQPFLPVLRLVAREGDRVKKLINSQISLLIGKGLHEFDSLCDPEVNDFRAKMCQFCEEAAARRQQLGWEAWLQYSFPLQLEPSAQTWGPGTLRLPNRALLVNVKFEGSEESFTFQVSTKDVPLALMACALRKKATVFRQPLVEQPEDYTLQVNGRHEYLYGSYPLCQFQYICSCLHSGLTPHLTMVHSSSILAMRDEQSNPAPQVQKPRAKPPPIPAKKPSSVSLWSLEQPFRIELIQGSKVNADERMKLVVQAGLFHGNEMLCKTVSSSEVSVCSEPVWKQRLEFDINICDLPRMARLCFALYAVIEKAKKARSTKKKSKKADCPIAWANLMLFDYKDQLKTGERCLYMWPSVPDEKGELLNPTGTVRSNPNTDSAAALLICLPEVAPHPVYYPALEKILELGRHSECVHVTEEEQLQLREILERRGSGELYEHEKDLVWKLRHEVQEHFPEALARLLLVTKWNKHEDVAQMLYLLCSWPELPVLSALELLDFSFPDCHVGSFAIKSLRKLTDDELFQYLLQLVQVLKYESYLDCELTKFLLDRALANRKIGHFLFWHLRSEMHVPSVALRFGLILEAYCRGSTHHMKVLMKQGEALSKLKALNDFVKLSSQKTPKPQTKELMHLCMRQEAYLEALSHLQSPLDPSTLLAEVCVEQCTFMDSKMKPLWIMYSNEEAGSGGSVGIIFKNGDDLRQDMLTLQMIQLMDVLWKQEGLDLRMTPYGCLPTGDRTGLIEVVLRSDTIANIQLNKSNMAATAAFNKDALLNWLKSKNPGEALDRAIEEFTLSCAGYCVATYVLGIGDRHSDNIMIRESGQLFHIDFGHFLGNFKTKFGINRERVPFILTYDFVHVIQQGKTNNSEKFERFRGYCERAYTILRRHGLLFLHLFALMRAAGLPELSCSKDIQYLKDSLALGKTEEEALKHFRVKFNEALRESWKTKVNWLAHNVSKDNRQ
Sequence of PI3Kδ (P27986 whole entry partner): as the sequence (P27986 whole entry partner) above

SMILES	IC50 (PI3Kδ)	α/δ selectivity (PI3Kα)
CC(C)(O)C1CCN(Cc2csc3c(-c4ccnc5[nH]ccc45)nc(N4CCOCC4)nc23)CC1 [Compound 17]	53 nM	74
COc1ncc(-c2nc(N3CCOCC3)nc3c(CN4CCN(C)CC4)csc23)cc1NS(=O)(=O)C1CC1 [Compound 69]	31 nM	79
COc1ncc(-c2nc(N3CCOCC3)nc3c(CN4CCN(C(=O)C(F)(F)F)CC4)csc23)cc1NS(C)(=O)=O [Compound 62]	5.6 nM	104
COc1ncc(-c2nc(N3CCOCC3)nc3c(CN4CCC(N5CCC[C@H]5C(F)(F)F)CC4)c(C)sc23)cc1NS(C)(=O)=O [Compound 124]	3.1 nM	430
CCN(C)C1CCN(Cc2csc3c(-c4cnc(OC)c(NS(C)(=O)=O)c4)nc(N4CCOCC4)nc23)CC1 [Compound 56]	7.6 nM	293
COc1ncc(-c2nc(N3CCOCC3)nc3c(CN4CCN(C)CC4)csc23)cc1NS(=O)(=O)N(C)C [Compound 72]	60 nM	29
COc1ncc(-c2nc(N3CCOCC3)nc3c(CN4CCN(C5COC5)CC4)csc23)cc1NS(C)(=O)=O [Compound 29]	6.9 nM	34
COc1ncc(-c2nc(N3CCOCC3)nc3c(CN4CCC(CO)CC4)c(C)sc23)cc1NS(C)(=O)=O [Compound 117]	7.2 nM	213
CC(C)C(=O)N1CCN(Cc2csc3c(-n4ccnc4C(F)(F)F)nc(N4CCOCC4)nc23)CC1 [Compound 30]	71 nM	36
C=C1CCN(Cc2c(C)sc3c(-c4cnc(OC)c(NS(C)(=O)=O)c4)nc(N4CCOCC4)nc23)CC1 [Compound 136]	7.8 nM	268
COc1ncc(-c2nc(N3CCOCC3)nc3ccoc23)cc1NS(C)(=O)=O [Compound 38]	108 nM	3
COc1ncc(-c2nc(N3CCOCC3)nc3c(CN4CCc5sccc5C4)c(C)sc23)cc1NS(C)(=O)=O [Compound 143]	32 nM	107
CCN(CC)C1CN(Cc2c(C)sc3c(-c4cnc(OC)c(NS(C)(=O)=O)c4)nc(N4CCOCC4)nc23)C1 [Compound 122]	9 nM	172
COc1ncc(-c2nc(N3CCOCC3)nc3c(CN4CCOCC4)csc23)cc1NS(C)(=O)=O [Compound 36]	13 nM	23
COc1ncc(-c2nc(N3CCOCC3)nc3c(CN4CCC(C(C)(C)O)CC4)csc23)cc1NS(=O)(=O)C1CC1 [Compound 50]	13 nM	359
COc1ncc(-c2nc(N3CCOCC3)nc3c(CN4CCN(C(C)(C)C)CC4)csc23)cc1NS(C)(=O)=O [Compound 34]	3.4 nM	44
COc1ncc(-c2nc(N3CCOCC3)nc3c(CN4CC[C@@H](N5CCCC5)C4)c(C)sc23)cc1NS(C)(=O)=O [Compound 130]	6.7 nM	273
COc1ncc(-c2nc(N3CCOCC3)nc3c(CN4CCC(C(C)(C)O)CC4)csc23)cc1NS(=O)(=O)c1ccccc1 [Compound 41]	11.4 nM	323
COc1ncc(-c2nc(N3CCOCC3)nc3c(CN4CCC(N5CCC[C@H]5C)CC4)c(C)sc23)cc1NS(C)(=O)=O [Compound 125]	2.6 nM	239
COc1ncc(-c2nc(N3CCOCC3)nc3c(CN4CCC(N(C)C(=O)OC(C)(C)C)CC4)csc23)cc1NS(C)(=O)=O [Compound 52]	36 nM	252
COc1ncc(-c2nc(N3CCOCC3)nc3c(CN4CCc5ccccc5C4)c(C)sc23)cc1NS(C)(=O)=O [Compound 138]	34 nM	67
O=C(CO)N1CCN(Cc2csc3c(-c4cccc5[nH]ccc45)nc(N4CCOCC4)nc23)CC1 [Compound 12]	17 nM	133
COc1ncc(-c2nc(N3CCOCC3)nc3c(CN4CCN(C)CC4)csc23)cc1NS(=O)(=O)c1ccc(F)cc1F [Compound 68]	71 nM	19
